Consider one molecule from patent US20200390781A1, “CERTAIN (2S)-N-[(1S)-1-CYANO-2-PHENYLETHYL]-1,4-OXAZEPANE-2-CARBOXAMIDES FOR TREATING ANCA ASSOCIATED VASCULITIDES” (INSMED INCORPORATED, priority 2018, published 2020).

Common to all, as to assay type: cell-based, human
For one experiment, the system named is proteinase 3 (PR3). The experiment can be described thus: PR3 activity in lysates of neutrophils differentiated in the presence of INS1007. The conditions noted are these: highest concentration tested (10 μM); FIG. 6. On the procedure: (§1) To evaluate the pharmacological effects of INS1007 on surface PR3 expression, total PR3 expression, and NSP activity, stem cells were differentiated to neutrophils in the presence of INS1007 at increasing concentrations. Primary bone marrow (BM) or umbilical cord blood (UC) derived CD34^+ neutrophil progenitor cells (AllCells; Alameda, Calif.) were cultured for 7 days in STEMSPAN™ SFEM media (Stemcell Technologies; Tukwila, Wash.) supplemented with recombinant human Stem Cell Factor (Peprotech; Rocky Hill, N.J.) and recombinant human IL-3 (Peprotech). […]
(§2) Neutrophils in a separate aliquot of harvested neutrophils were lysed with 10% (v/v) Triton X-100 in PBS and the lysates were added to 96-well plates. Peptide substrates for NE (N-Methoxysuccinyl-Ala-Ala-Pro-Val-7-amido-4-methylcoumarin; Sigma-Aldrich; St. Louis, Mo.), for PR3 (aminobenzoyl-Val-Ala-Asp-Cys-Ala-Asp-Gln-Lys(2,4-dinitrophenyl); GenScript; Piscataway, N.J.), and for CatG (N-Succinyl-Ala-Ala-Pro-Phe p-nitroanilide; Sigma) were added, and either fluorescence or absorbance was quantified using a SYNERGY™ microplate reader (BioTek; Winooski, Vt.). […] A portion of cell lysate samples was retained for protein quantification using a PIERCE™ BCA Protein Assay Kit (Thermo Fisher) according to the manufacturer's instructions. […]

For a further experiment, the system named is neutrophil elastase (NE). The experiment can be described thus: NE activity in lysates of neutrophils differentiated in the presence of INS1007. The conditions noted are these: highest concentration tested (10 μM); FIG. 5. The method, then: as §1, §2
Another experiment relates to cathepsin G (CatG). In words: CatG activity in lysates of neutrophils differentiated in the presence of INS1007. The note with it: highest concentration tested (10 μM); data not shown. On the procedure:
as §1, §2

The subject of another experiment is surface PR3. The experiment can be described thus: Fluorescence microscopy of surface PR3 on differentiated neutrophils. The note with it: differentiation in the presence of 10 μM INS1007; neutrophils derived from bone marrow or umbilical cord stem cells (both cell types). The method, then: as §1, with “(Peprotech). The cells were differentiated in culture for another 7 days in STEMSPAN® SFEM media (Stemcell Technologies) with recombinant human Granulocyte Colony Stimulating Factor (Peprotech), plus increasing concentrations of INS1007 (0-10 μM).” for “(Peprotech).”
In a separate experiment, neutrophils were harvested, stained for 30 min. with either a mouse anti-PR3 monoclonal antibody (Abcam; Cambridge, Mass.) or a mouse monoclonal IgG isotype control (Abcam), followed by a Cy5-conjugated goat anti-mouse IgG secondary antibody (Abcam), fixed in 4% formaldehyde, and mounted to glass slides with PROLONG® Diamond Antifade Mountant with DAPI (Thermo Fisher; Waltham, Mass.). Samples were imaged with an Axio fluorescence microscope (Zeiss; Oberkochen, Germany) using constant settings while imaging samples from different treatment conditions.

In experiment [1] the test system is surface proteinase 3 (PR3). The experiment can be described thus: Surface PR3 expression by flow cytometry in neutrophils differentiated in the presence of INS1007. The note with it: for percentage of cells with no detectable surface PR3 expression: untreated approximately 30-40%, FIG. 2. On the procedure: (§3) To evaluate the pharmacological effects of INS1007 on surface PR3 expression, total PR3 expression, and NSP activity, stem cells were differentiated to neutrophils in the presence of INS1007 at increasing concentrations. Primary bone marrow (BM) or umbilical cord blood (UC) derived CD34^+ neutrophil progenitor cells (AllCells; Alameda, Calif.) were cultured for 7 days in STEMSPAN™ SFEM media (Stemcell Technologies; Tukwila, Wash.) supplemented with recombinant human Stem Cell Factor (Peprotech; Rocky Hill, N.J.) and recombinant human IL-3 (Peprotech). The cells were differentiated in culture for another 7 days in STEMSPAN® SFEM media (Stemcell Technologies) with recombinant human Granulocyte Colony Stimulating Factor (Peprotech), plus increasing concentrations of INS1007 (0-10 μM). At the end of the differentiation/treatment period, cells were harvested for analysis.
(§4) Differentiated neutrophils were harvested for flow cytometry to quantify PR3 expression on the surface of neutrophils (FIGS. 1 and 2) and neutrophil total PR3 expression (FIG. 3).
After harvest, the cells were resuspended in FACS staining buffer and Fc receptors were blocked for 30 min at 4° C. Cells were stained for 30 min with a mouse anti-PR3 monoclonal antibody (Abcam: Cambridge, Mass.) or a mouse monoclonal IgG isotype control (Abcam), followed by a Cy5-conjugated goat anti-mouse IgG secondary antibody (Abcam), and then analyzed using a GUAVA® EASYCYTEI^M 6HT flow cytometer (Millipore; Billerica, Mass.).

Another experiment concerns total proteinase 3 (PR3). In words: Total PR3 expression (surface and intracellular) by flow cytometry in differentiated neutrophils. The conditions noted are these: for total PR3 levels: FIG. 3. The method, then:
as §3, §4
In general terms: Flow cytometry measures light scatter and fluorescence of single cells or particles in a stream.

A value given as a limit tells only on which side of the number the result lay.

Regarding `Cn1c(=O)oc2ccc(-c3ccc(C[C@@H](C#N)NC(=O)[C@@H]4CNCCCO4)cc3)cc21` [INS1007, (2S)—N-{(1S)-1-cyano-2-[4-(3-methyl-2-oxo-2,3-dihydro-1,3-benzoxazol-5-yl)phenyl]ethyl}-1,4-oxazepane-2-carboxamide], in the experiment with proteinase 3 (PR3), the “decrease of PR3 activity” value is above 90%. The “decrease of NE activity” value with neutrophil elastase (NE) is above 90%. Besides, in the experiment with cathepsin G (CatG), the “decrease of CatG activity” value was “greater than 75%”. For the same molecule, the “surface PR3 (fluorescence microscopy)” value with surface PR3 is given as “markedly reduced”. For the same molecule, the “percentage of cells with no detectable surface PR3 expression” value in experiment [1] (neutrophils derived from bone marrow stem cells) was around 80%; in experiment [1] (neutrophils derived from umbilical cord blood stem cells), “more than 50%”. The “maximum reduction of surface PR3 expression (MFI, percent of untreated cells)” value in experiment [1] (neutrophils derived from both bone marrow and umbilical cord blood stem cells, INS1007 0-10 μM, FIG. 1) was “greater than 60%”. Further, the “total PR3 levels” value in the experiment with total proteinase 3 (PR3) (bone marrow stem cell-derived neutrophils, not completely concentration-dependent) is recorded as “significantly reduced”; in the experiment on total proteinase 3 (PR3) (umbilical cord blood stem cell-derived neutrophils), “did not reach statistically significant reduction”. The “percentage of cells with positive total PR3 expression” value with total proteinase 3 (PR3) (neutrophils derived from either umbilical cord blood or bone marrow stem cells, FIG. 4) was “did not reduce”.
